Reference: US12503704B2, “Modified cell” (Oxford University Innovation Limited, priority 2019, dated 2025)
Read-outs that look alike come from different tables or passages of the source.

Experiments:
[1] = tested on: ICeuI+ Glycolysis+ strain; assay: D-cycloserine treatment, plate counts over time; assay type: cell-based, Escherichia coli; conditions: 200 μg/mL D-cycloserine at time 0 and 1.5 hours
[2] = tested on: ICeuI− Glycolysis+ strain; assay: D-cycloserine treatment, plate counts over time; assay type: cell-based, Escherichia coli; conditions: 200 μg/mL D-cycloserine at time 0 and 1.5 hours
[3] = tested on: ICeuI+ Glycolysis− strain; assay: D-cycloserine treatment, plate counts over time; assay type: cell-based, Escherichia coli; conditions: 200 μg/mL D-cycloserine at time 0 and 1.5 hours
parent cells = assay: Screen of D-cycloserine concentrations to maintain SimCell purity; assay type: cell-based, Escherichia coli; conditions: little to no increase in OD
Method: A protocol for minimal cell purification from Heinemann and Ankenbauer was adapted for SimCell purification (12)^a. Mixed cultures of SimCells and parent cells were treated with D-cycloserine to kill actively dividing cells. D-cycloserine was added at a concentration of 200 μg/mL and cells were left to incubate at 37° C. and shake for 1.5 hours before D-cycloserine was added again at the same concentration. After 24 hours of treatment with D-cycloserine, cells were spun down and washed twice with phosphate buffered saline (PBS). When pure SimCell cultures were induced for protein expression, 25 μg/mL D-cycloserine was added every two days to prevent parent cell growth but allow SimCells to be functional.
Further optimization of D-cycloserine concentration ensured pure SimCell populations in the following experiments, and excluded the contribution made by remaining parent cells in SimCell populations. After a screen of D-cycloserine concentrations, 25 μg/mL was determined to be the point where parent cells were killed in the culture evidenced by little to no increase in OD (Table S3) but also permitted protein production or other activities in SimCells. By using D-cycloserine which targets active, parent cells, we were able to distinguish activity from SimCells on a larger, culture-level scale for further characterization.

[4] = tested on: ICeuI− Glycolysis− strain; assay: D-cycloserine treatment, plate counts over time; assay type: cell-based, Escherichia coli; conditions: 200 μg/mL D-cycloserine at time 0 and 1.5 hours
SalAR circuit = assay: GFP output after induction of the SalAR circuit (pSalAR-GFP) in parent cells; assay type: cell-based, Escherichia coli
Excerpt: FIGS. 33A-33E: The levels of GFP over time after induction of the SalAR circuit can act as an indicator for the kinetics of catechol production. Production of GFP by parent cells with the pSalAR-GFP plasmid and FIG. 33A without an additional glycolysis pathway (pSEVA224) or FIG. 33B with an additional glycolysis pathway (pSEVA224-GB3). […] FIG. 33C Ratio of fluorescent output of induced cells versus cells not induced with SA. In parent cells GFP production increased by about 1.5 and 2-fold when induced with 100 μM and 500 μM SA, respectively. FIG. 33D Catechol production by E. coli. LB agar plates with aspirin and salicylic acid have no color (top), while catechol is distinctly brown (bottom). When E. coli with pSalAR-GFP was plated on agar with inducers 2 mM Aspirin (bottom middle) or 2 mM salicylic acid (bottom right) catechol was produced and diffused out of the cell, tinting the agar brown. […] FIG. 33E The color of the supernatant darkens as inducer concentration increases, indicating production and export of catechol. SA: salicylic acid, ASA: acetylsalicylic acid (aspirin).

[5] = tested on: fibroblasts; A549, Mo59K, and RD cancer cells
[6] = tested on: fibroblasts; A549, Mo59K, and RD cancer cells; assay: Cell viability assay with supplements, all mammalian cell lines; conditions: PBS control
[7] = tested on: A549 lung cancer cell line; assay: Cell viability assay (crystal violet); assay type: cell-based; conditions: catechol at concentrations as low as 100 μM, 24 hours
[8] = tested on: fibroblast control cell line (Fibroblasts); assay: Cell viability assay (crystal violet); assay type: cell-based; conditions: catechol at concentrations as low as 100 μM, 24 hours
[9] = tested on: glioblastoma (Mo59K) cancer cell line; assay: Cell viability assay (crystal violet); assay type: cell-based; conditions: catechol at concentrations as low as 100 μM, 24 hours
[10] = tested on: rhabdomyosarcoma (RD) cancer cell line; assay: Cell viability assay (crystal violet); assay type: cell-based; conditions: catechol at concentrations as low as 100 μM, 24 hours

For `N[C@@H]1CONC1=O` [D-cycloserine], the CFU/mL ([1]; time 0 hr) was 3.08 × 10^5 CFU/mL, the CFU/mL ([1]; time 1.5 hr) was 2.7 × 10^3 CFU/mL and the CFU/mL ([1]; time 5 hr) was 7.5 × 10^2 CFU/mL. The CFU/mL ([1]; time 24 hr) was 0 CFU/mL, the CFU/mL ([2]; time 0 hr) was 1.0 × 10^9 CFU/mL and the CFU/mL ([2]; time 1.5 hr) was 6.9 × 10^8 CFU/mL. For the same compound, the CFU/mL ([2]; time 5 hr) was 4 × 10^7 CFU/mL, the CFU/mL ([2]; time 24 hr) was 8.3 × 10^4 CFU/mL and the CFU/mL ([3]; time 0 hr) was 3.5 × 10^5 CFU/mL. The CFU/mL ([3]; time 1.5 hr) was 4.1 × 10^3 CFU/mL, the CFU/mL ([3]; time 5 hr) was 7.2 × 10^2 CFU/mL and the CFU/mL ([3]; time 24 hr) was 0 CFU/mL. The “D-cycloserine concentration at which parent cells were killed while SimCell activity was permitted” value (parent cells) was 25 µg/mL, the CFU/mL ([4]; time 0 hr) was 1.8 × 10^9 CFU/mL and the CFU/mL ([4]; time 1.5 hr) was 1.1 × 10^9 CFU/mL. The CFU/mL ([4]; time 5 hr) was 1.3 × 10^7 CFU/mL and the CFU/mL ([4]; time 24 hr) was 1.6 × 10^7 CFU/mL.
`O=C(O)c1ccccc1O` [SA, salicylic acid] was tested, and the “increase in GFP production, induced versus not induced” value (SalAR circuit; 100 μM SA) was “about 1.5 fold”, the “increase in GFP production, induced versus not induced” value (SalAR circuit; 500 μM SA) was ~2 fold and the “effect of supplement alone on viability of mammalian cell lines” value (“effect of supplement alone” for short) [5] was “no adverse effects”. For the same compound, the “effect of supplement alone” value [6] was “did not cause cell death”.
In the case of `CC(=O)Oc1ccccc1C(=O)O` [aspirin, acetylsalicylic acid], the “effect of supplement alone” value [5] is reported as “no adverse effects”.
In the case of `Oc1ccccc1O` [catechol, 1,2-dihydroxybenzene], the cell viability [7] is reported as “significantly decreased the viability”, the cell viability [8] is reported as “less of an adverse effect” and the cell viability [9] is reported as “significantly decreased the viability”. For the same compound, the cell viability [10] was “significantly decreased the viability”.
